From patent US8906909B2 (Curis, Inc., priority 2009, dated 2014)

Assays:
[1] = system: HDACs (HeLa cell nuclear extracts); test: HDAC enzymatic activity, Biomol Color de Lys system; assay type: biochemical
Summary of the method: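 IC50 from sigmoidal dose-response fits of fluorescence (Ex 350–380, Em 440–460 nm). Compounds in DMSO dilution series incubated 1 h at 25 °C with HeLa nuclear extract HDACs and colorimetric substrate, pH 8.0 Tris/Cl buffer with NaCl, KCl, MgCl2, before developer termination.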

SMILES	IC50 [1]	melting point
CN(Cc1cc2nc(-c3cccc4[nH]ncc34)nc(N3CCOCC3)c2s1)c1ccc(/C=C/C(=O)NO)cc1 [Compound 81, (E)-3-(4-(((2-(1H-indazol-4-yl)-4-morpholinothieno[3,2-d]pyrimidin-6-yl)methyl)(methyl)amino)phenyl)-N-hydroxyacrylamide]	1 to 10 µM	188 to 190 °C
CN(CCCCCCC(=O)NO)Cc1cc2nc(-c3cccc4[nH]ncc34)nc(N3CCOCC3)c2s1 [Compound 104, 7-(((2-(1H-indazol-4-yl)-4-morpholinothieno[3,2-d]pyrimidin-6-yl)methyl)(methyl)amino)-N-hydroxyheptanamide]	0.1 to 1 µM	131 to 133 °C
CC(C)(C)CN(Cc1cc2nc(-c3cccc4[nH]ncc34)nc(N3CCOCC3)c2s1)c1ncc(C(=O)NO)cn1 [Compound 83, 2-(((2-(1H-indazol-4-yl)-4-morpholinothieno[3,2-d]pyrimidin-6-yl)methyl)(neopentyl)amino)-N-hydroxypyrimidine-5-carboxamide]	1 to 10 µM	240 to 242 °C
CN(Cc1cc2nc(-c3ccc4[nH]c(C(F)(F)F)nc4c3)nc(N3CCOCC3)c2s1)c1ncc(C(=O)NO)cn1 [Compound 318]	< 0.1 µM	> 300 °C
CN(Cc1cc2nc(-c3ccccc3CO)nc(N3CCOCC3)c2s1)c1ncc(C(=O)NO)cn1 [Compound 141, N-hydroxy-2-(((2-(2-(hydroxymethyl)phenyl)-4-morpholinothieno[3,2-d]pyrimidin-6-yl)methyl)(methyl)amino)pyrimidine-5-carboxamide]	< 0.1 µM	173 to 176 °C
COc1ncc(-c2nc(N3CCOCC3)c3sc(C(C)N(C)c4ncc(C(=O)NO)cn4)cc3n2)cn1 (stereo not drawn) [Compound 262, N-Hydroxy-2-((1-(2-(2-methoxypyrimidin-5-yl)-4-morpholinothieno[3,2-d]pyrimidin-6-yl)ethyl)(methyl)amino)pyrimidine-5-carboxamide]	< 0.1 µM	210 to 215 °C
COc1ccc(-c2nc(N3CCOCC3)c3sc(NS(=O)(=O)c4ccc(/C=C/C(=O)NO)cc4)cc3n2)cn1 [Compound 222, N-Hydroxy-3-{4-[2-(6-methoxy-pyridin-3-yl)-4-morpholin-4-yl-thieno[3,2-d]pyrimidin-6-ylsulfamoyl]-phenyl}-acrylamide]	< 0.1 µM	> 300 °C
CNC(=O)c1cccc(-c2nc(N3CCOCC3)c3sc(CN(C)c4ncc(C(=O)NO)cn4)cc3n2)c1 [Compound 144, N-hydroxy-2-(methyl((2-(3-(methylcarbamoyl)phenyl)-4-morpholinothieno[3,2-d]pyrimidin-6-yl)methyl)amino)pyrimidine-5-carboxamide]	< 0.1 µM	215 to 217 °C
CN(C)CCOc1ccc(-c2nc(N3CCOCC3)c3sc(CN(C)c4ncc(C(=O)NO)cn4)cc3n2)cn1 [Compound 257, 2-(((2-(6-(2-(Dimethylamino)ethoxy)pyridin-3-yl)-4-morpholinothieno[3,2-d]pyrimidin-6-yl)methyl)(methyl)amino)-N-hydroxypyrimidine-5-carboxamide]	< 0.1 µM	140 to 143 °C
O=C(CCCNCc1cc2nc(-c3cccc4[nH]ncc34)nc(N3CCOCC3)c2s1)NO [Compound 41, 4-((2-(1H-indazol-4-yl)-4-morpholinothieno[3,2-d]pyrimidin-6-yl)methylamino)-N-hydroxybutanamide]	< 0.1 µM	149 to 152 °C
CN(Cc1cc2nc(-c3cccc(CN)c3)nc(N3CCOCC3)c2s1)c1ncc(C(=O)NO)cn1 [Compound 137, 2-(((2-(3-(aminomethyl)phenyl)-4-morpholinothieno[3,2-d]pyrimidin-6-yl)methyl)(methyl)amino)-N-hydroxypyrimidine-5-carboxamide]	< 0.1 µM	173 to 176 °C
CNc1ccc(-c2nc(N3CCOCC3)c3sc(C(C)N(C)c4ncc(C(=O)NO)cn4)cc3n2)cn1 (stereo not drawn) [Compound 237, N-Hydroxy-2-(methyl(1-(2-(6-(methylamino)pyridin-3-yl)-4-morpholinothieno[3,2-d]pyrimidin-6-yl)ethyl)amino)pyrimidine-5-carboxamide]	< 0.1 µM	270 to 275 °C
CS(=O)(=O)N1CCN(Cc2cc3nc(-c4cccc5[nH]ncc45)nc(N4CCN(CCCCCC(=O)NO)CC4)c3s2)CC1 [Compound 31, 6-(4-(2-(1H-indazol-4-yl)-6-((4-(methylsulfonyl)piperazin-1-yl)methyl)thieno[3,2-d]pyrimidin-4-yl)piperazin-1-yl)-N-hydroxyhexanamide]	0.1 to 1 µM	140 to 145 °C
O=C(NO)c1ccc(NCc2cc3nc(-c4cccc5[nH]ncc45)nc(N4CCOCC4)c3s2)cc1 [Compound 78, 4-((2-(1H-indazol-4-yl)-4-morpholinothieno[3,2-d]pyrimidin-6-yl)methylamino)-N-hydroxybenzamide]	< 0.1 µM	180 to 183 °C
CS(=O)(=O)N1CCN(Cc2cc3nc(-c4cccc5c4cnn5CCCCCCC(=O)NO)nc(N4CCOCC4)c3s2)CC1 [Compound 5, N-hydroxy-7-(4-(6-((4-(methylsulfonyl)piperazin-1-yl)methyl)-4-morpholinothieno[3,2-d]pyrimidin-2-yl)-1H-indazol-1-yl)heptanamide]	< 0.1 µM	127 to 130 °C
CS(=O)(=O)N1CCN(Cc2cc3nc(-c4ccc(OCCCCCC(=O)NO)cc4)nc(N4CCOCC4)c3s2)CC1 [Compound 320, N-Hydroxy-6-(4-(6-((4-(methylsulfonyl)piperazin-1-yl)methyl)-4-morpholinothieno[3,2-d]pyrimidin-2-yl)phenoxy)hexanamide]	0.1 to 1 µM	140 to 142 °C
Nc1ncc(-c2nc(N3CCOCC3)c3sc(NCCCCCCC(=O)NO)cc3n2)cn1 [Compound 234, 7-[2-(2-Amino-pyrimidin-5-yl)-4-morpholin-4-yl-thieno[3,2-d]pyrimidin-6-ylamino]-heptanoic acid hydroxyamide]	< 0.1 µM	235 to 240 °C
CN(Cc1cc2nc(-c3ccc(S(C)(=O)=O)cc3)nc(N3CCOCC3)c2s1)c1ncc(C(=O)NO)cn1 [Compound 149, N-hydroxy-2-(methyl((2-(4-(methylsulfonyl)phenyl)-4-morpholinothieno[3,2-d]pyrimidin-6-yl)methyl)amino)pyrimidine-5-carboxamide]	< 0.1 µM	206 to 208 °C

Continued, values first:

IC50 [1]	melting point	SMILES
< 0.1 µM	230 to 235 °C	CC(O)c1ccc(F)c(-c2nc(N3CCOCC3)c3sc(CN(C)c4ncc(C(=O)NO)cn4)cc3n2)c1 (stereo not drawn) [Compound 295, 2-(((2-(2-Fluoro-5-(1-hydroxyethyl)phenyl)-4-morpholinothieno[3,2-d]pyrimidin-6-yl)methyl)(methyl)amino)-N-hydroxypyrimidine-5-carboxamide]
< 0.1 µM	270 °C (dec.)	CN(Cc1cc2nc(-c3ccc4c(c3)CC(=O)N4)nc(N3CCOCC3)c2s1)c1ncc(C(=O)NO)cn1 [Compound 194, N-hydroxy-2-(methyl((4-morpholino-2-(2-oxoindolin-5-yl)thieno[3,2-d]pyrimidin-6-yl)methyl)amino)pyrimidine-5-carboxamide]
< 0.1 µM	123 to 126 °C	CS(=O)(=O)N1CCN(Cc2cc3nc(-c4cccc5nn(CCCCCCC(=O)NO)cc45)nc(N4CCOCC4)c3s2)CC1 [Compound 9, N-hydroxy-7-(4-(6-((4-(methylsulfonyl)piperazin-1-yl)methyl)-4-morpholinothieno[3,2-d]pyrimidin-2-yl)-2H-indazol-2-yl)heptanamide]
< 0.1 µM	170 to 175 °C	CNCCOc1ccc(-c2nc(N3CCOCC3)c3sc(CN(C)c4ncc(C(=O)NO)cn4)cc3n2)cn1 [Compound 258, N-Hydroxy-2-(methyl((2-(6-(2-(methylamino)ethoxy)pyridin-3-yl)-4-morpholinothieno[3,2-d]pyrimidin-6-yl)methyl)amino)pyrimidine-5-carboxamide]
< 0.1 µM	209 to 221 °C	O=C(NO)c1cnc(N2CCN(Cc3cc4nc(-c5cccc6[nH]ncc56)nc(N5CCOCC5)c4s3)CC2)nc1 [Compound 14, 2-(4-((2-(1H-indazol-4-yl)-4-morpholinothieno[3,2-d]pyrimidin-6-yl)methyl)piperazin-1-yl)-N-hydroxypyrimidine-5-carboxamide]
< 0.1 µM	> 300 °C	Nc1ncc(-c2nc(N3CCOCC3)c3sc(NS(=O)(=O)c4cccc(/C=C/C(=O)NO)c4)cc3n2)cn1 [Compound 218, (E)-3-(3-(N-(2-(2-aminopyrimidin-5-yl)-4-morpholinothieno[3,2-d]pyrimidin-6-yl)sulfamoyl)phenyl)-N-hydroxyacrylamide]
< 0.1 µM	128 to 130 °C	O=C(CCCCCNCc1cc2nc(-c3cccc4[nH]ncc34)nc(N3CCOCC3)c2s1)NO [Compound 43, 6-((2-(1H-indazol-4-yl)-4-morpholinothieno[3,2-d]pyrimidin-6-yl)methylamino)-N-hydroxyhexanamide]
< 0.1 µM	218 to 223 °C	CN(Cc1cc2nc(-c3ccc(CO)cc3)nc(N3CCOCC3)c2s1)c1ncc(C(=O)NO)cn1 [Compound 140, N-hydroxy-2-(((2-(4-(hydroxymethyl)phenyl)-4-morpholinothieno[3,2-d]pyrimidin-6-yl)methyl)(methyl)amino)pyrimidine-5-carboxamide]
< 0.1 µM	234 to 236 °C	CCCCN(Cc1cc2nc(-c3cccc4[nH]ncc34)nc(N3CCOCC3)c2s1)c1ncc(C(=O)NO)cn1 [Compound 85, 2-(((2-(1H-indazol-4-yl)-4-morpholinothieno[3,2-d]pyrimidin-6-yl)methyl)(butyl)amino)-N-hydroxypyrimidine-5-carboxamide]
